What all share (type): functional, organism-based
Test [1] relates to Plasmodium falciparum. The test is described as follows: Antimalarial activity against chloroquine-,pyrimethamine-resistant Plasmodium falciparum W2 assessed as inhibition of [3H]hypoxanthine incorporation after 96 hrs by microtiter plate scintillation counting.
Test [2] deals with Plasmodium falciparum. The test can be described thus: Antimalarial activity against chloroquine-sensitive Plasmodium falciparum D6 assessed as inhibition of [3H]hypoxanthine incorporation after 96 hrs by microtiter plate scintillation counting.
In test [3] the test system is Plasmodium falciparum. The test can be described thus: Antimalarial activity against multidrug-resistant Plasmodium falciparum TM91C235 assessed as inhibition of [3H]hypoxanthine incorporation after 96 hrs by microtiter plate scintillation counting.

As a reminder, the IC50 is the midpoint of a concentration-inhibition curve. For the compound `CC[C@H]1OC(=O)[C@H](C)[C@@H](O[C@H]2C[C@@](C)(OC)[C@@H](O)[C@H](C)O2)[C@H](C)[C@@H](O[C@@H]2O[C@H](C)C[C@H](N(C)C)[C@H]2O)[C@](C)(O)C[C@@H](C)CN(CCCNC(=O)NCCc2cccs2)[C@H](C)[C@@H](O)[C@]1(C)O`, the values for the IC50 in the test on Plasmodium falciparum [1], in the test with Plasmodium falciparum [2] and in the test with Plasmodium falciparum [3] were 1040 nM, 932 nM and 405 nM, respectively.

As for `CC[C@H]1OC(=O)[C@H](C)[C@@H](O[C@H]2C[C@@](C)(OC)[C@@H](O)[C@H](C)O2)[C@H](C)[C@@H](O[C@@H]2O[C@H](C)C[C@H](N(C)C)[C@H]2O)[C@](C)(O)C[C@@H](C)CN(CCCNC(=S)Nc2sc3c(c2C(=O)OC)CCCC3)[C@H](C)[C@@H](O)[C@]1(C)O`, the IC50 was found to be 229 nM in the test with Plasmodium falciparum [1], 825 nM in the test on Plasmodium falciparum [2] and 407 nM in the test on Plasmodium falciparum [3].

Consider `CC[C@H]1OC(=O)[C@H](C)[C@@H](O[C@H]2C[C@@](C)(OC)[C@@H](O)[C@H](C)O2)[C@H](C)[C@@H](O[C@@H]2O[C@H](C)C[C@H](N(C)C)[C@H]2O)[C@](C)(O)C[C@@H](C)CN(CCCNC(=O)Nc2cc(C(=O)OC)cc(C(=O)OC)c2)[C@H](C)[C@@H](O)[C@]1(C)O`, for which the IC50 is 120 nM in the test on Plasmodium falciparum [1], 648 nM in the test on Plasmodium falciparum [2] and 411 nM in the test on Plasmodium falciparum [3].

On to `CC[C@H]1OC(=O)[C@H](C)[C@@H](O[C@H]2C[C@@](C)(OC)[C@@H](O)[C@H](C)O2)[C@H](C)[C@@H](O[C@@H]2O[C@H](C)C[C@H](N(C)C)[C@H]2O)[C@](C)(O)C[C@@H](C)CN(CCCNC(=O)NC2CCCCC2)[C@H](C)[C@@H](O)[C@]1(C)O`, for which the IC50 is 185 nM with Plasmodium falciparum [1], 1960 nM with Plasmodium falciparum [2] and 411 nM in the test with Plasmodium falciparum [3].

In the case of `CC[C@H]1OC(=O)[C@H](C)[C@@H](O[C@H]2C[C@@](C)(OC)[C@@H](O)[C@H](C)O2)[C@H](C)[C@@H](O[C@@H]2O[C@H](C)C[C@H](N(C)C)[C@H]2O)[C@](C)(O)C[C@@H](C)CN(C)[C@H](C)[C@@H](O)[C@]1(C)O` [AZITHROMYCIN], the IC50 in the test on Plasmodium falciparum [1] was 2240 nM; in the test with Plasmodium falciparum [2] it was 1020 nM; in the test with Plasmodium falciparum [3] it was 2060 nM.

The values are drawn from ChEMBL document CHEMBL1681728, “An automated, polymer-assisted strategy for the preparation of urea and thiourea derivatives of 15-membered azalides as potential antimalarial chemotherapeutics” (Bioorg Med Chem, 2011).
